{"source": "patent US12398101B2", "about": "“Herbicidal 2-azaspiro[3-5]nonane compounds” (SYNGENTA CROP PROTECTION AG, priority 2018, dated 2025)", "type_in_all_cases": "in vivo", "settings_in_all_cases": "250 g/h, evaluated after 13 days", "key": {"[1]": {"system": "Lolium perenne (LOLPE)", "experiment": "Glasshouse herbicide test, pre-emergence application", "method": "(§1) Seeds of a variety of test species are sown in standard soil in pots (Lolium perenne (LOLPE), Setaria faberi (SETFA), Echinochloa crus-galli (ECHCG), Avena fatua (AVEFA)). After cultivation for one day (pre-emergence) or after 8 days cultivation (post-emergence) under controlled conditions in a glasshouse (at 24/16° C., day/night; 14 hours light; 65% humidity), the plants are sprayed with an aqueous spray solution derived from the formulation of the technical active ingredient in acetone/water (50:50) solution containing 0.5% Tween 20 (polyoxyethelyene sorbitan monolaurate, CAS RN 9005-64-5). Compounds are applied at 250 g/h. The test plants are then grown in a glasshouse under controlled conditions in a glasshouse (at 24/16° C., day/night; 14 hours light; 65% humidity) and watered twice daily. After 13 days for pre and post-emergence, the test is evaluated for the percentage damage caused to the plant. The biological activities are shown in the following table on a five point scale (5=80-100%; 4=60-79%; 3=40-59%; 2=20-39%; 1=0-19%)."}, "[2]": {"system": "Setaria faberi (SETFA)", "experiment": "Glasshouse herbicide test, pre-emergence application", "method": "as §1"}, "[3]": {"system": "Avena fatua (AVEFA)", "experiment": "Glasshouse herbicide test, pre-emergence application", "method": "as §1"}, "[4]": {"system": "Echinochloa crus-galli (ECHCG)", "experiment": "Glasshouse herbicide test, pre-emergence application", "method": "as §1"}, "[5]": {"system": "Lolium perenne (LOLPE)", "experiment": "Glasshouse herbicide test, post-emergence application", "method": "as §1"}, "[6]": {"system": "Setaria faberi (SETFA)", "experiment": "Glasshouse herbicide test, post-emergence application", "method": "as §1"}, "[7]": {"system": "Avena fatua (AVEFA)", "experiment": "Glasshouse herbicide test, post-emergence application", "method": "as §1"}, "[8]": {"system": "Echinochloa crus-galli (ECHCG)", "experiment": "Glasshouse herbicide test, post-emergence application", "method": "as §1"}}, "data": [{"molecule": "CC#Cc1cc(C)c(C2C(=O)CC3(CC2=O)CN(S(=O)(=O)CC)C3)c(C)c1", "note": "[Compound 1.002]", "values": [{"measurement": "percentage damage caused to the plant, five point scale, LOLPE", "setting": "[1]", "value": "5 (5=80-100%)"}, {"measurement": "percentage damage caused to the plant, five point scale, SETFA", "setting": "[2]", "value": "5 (5=80-100%)"}, {"measurement": "percentage damage caused to the plant, five point scale, AVEFA", "setting": "[3]", "value": "5 (5=80-100%)"}, {"measurement": "percentage damage caused to the plant, five point scale, ECHCG", "setting": "[4]", "value": "5 (5=80-100%)"}, {"measurement": "percentage damage caused to the plant, five point scale, LOLPE", "setting": "[5]", "value": "5 (5=80-100%)"}, {"measurement": "percentage damage caused to the plant, five point scale, SETFA", "setting": "[6]", "value": "5 (5=80-100%)"}, {"measurement": "percentage damage caused to the plant, five point scale, AVEFA", "setting": "[7]", "value": "5 (5=80-100%)"}, {"measurement": "percentage damage caused to the plant, five point scale, ECHCG", "setting": "[8]", "value": "5 (5=80-100%)"}]}, {"molecule": "CC#Cc1cc(C)c(C2C(=O)CC3(CC2=O)CN(C(=O)c2ccccc2)C3)c(C)c1", "note": "[Compound 1.003, 2-benzoyl-7-(2,6-dimethyl-4-prop-1-ynyl-phenyl)-2-azaspiro[3.5]nonane-6,8-dione]", "values": [{"measurement": "percentage damage caused to the plant, five point scale, LOLPE", "setting": "[1]", "value": "5 (5=80-100%)"}, {"measurement": "percentage damage caused to the plant, five point scale, SETFA", "setting": "[2]", "value": "5 (5=80-100%)"}, {"measurement": "percentage damage caused to the plant, five point scale, AVEFA", "setting": "[3]", "value": "5 (5=80-100%)"}, {"measurement": "percentage damage caused to the plant, five point scale, ECHCG", "setting": "[4]", "value": "5 (5=80-100%)"}, {"measurement": "percentage damage caused to the plant, five point scale, LOLPE", "setting": "[5]", "value": "5 (5=80-100%)"}, {"measurement": "percentage damage caused to the plant, five point scale, SETFA", "setting": "[6]", "value": "5 (5=80-100%)"}, {"measurement": "percentage damage caused to the plant, five point scale, AVEFA", "setting": "[7]", "value": "5 (5=80-100%)"}, {"measurement": "percentage damage caused to the plant, five point scale, ECHCG", "setting": "[8]", "value": "5 (5=80-100%)"}]}, {"molecule": "CC#Cc1cc(C)c(C2C(=O)CC3(CC2=O)CN(C(=O)c2ccccn2)C3)c(C)c1", "note": "[Compound 1.004]", "values": [{"measurement": "percentage damage caused to the plant, five point scale, LOLPE", "setting": "[1]", "value": "5 (5=80-100%)"}, {"measurement": "percentage damage caused to the plant, five point scale, SETFA", "setting": "[2]", "value": "5 (5=80-100%)"}, {"measurement": "percentage damage caused to the plant, five point scale, AVEFA", "setting": "[3]", "value": "5 (5=80-100%)"}, {"measurement": "percentage damage caused to the plant, five point scale, ECHCG", "setting": "[4]", "value": "5 (5=80-100%)"}, {"measurement": "percentage damage caused to the plant, five point scale, LOLPE", "setting": "[5]", "value": "5 (5=80-100%)"}, {"measurement": "percentage damage caused to the plant, five point scale, SETFA", "setting": "[6]", "value": "5 (5=80-100%)"}, {"measurement": "percentage damage caused to the plant, five point scale, AVEFA", "setting": "[7]", "value": "5 (5=80-100%)"}, {"measurement": "percentage damage caused to the plant, five point scale, ECHCG", "setting": "[8]", "value": "5 (5=80-100%)"}]}, {"molecule": "CC#Cc1cc(C)c(C2C(=O)CC3(CC2=O)CN(C(=O)COC)C3)c(C)c1", "note": "[Compound 1.005]", "values": [{"measurement": "percentage damage caused to the plant, five point scale, LOLPE", "setting": "[1]", "value": "5 (5=80-100%)"}, {"measurement": "percentage damage caused to the plant, five point scale, SETFA", "setting": "[2]", "value": "5 (5=80-100%)"}, {"measurement": "percentage damage caused to the plant, five point scale, AVEFA", "setting": "[3]", "value": "5 (5=80-100%)"}, {"measurement": "percentage damage caused to the plant, five point scale, ECHCG", "setting": "[4]", "value": "5 (5=80-100%)"}, {"measurement": "percentage damage caused to the plant, five point scale, LOLPE", "setting": "[5]", "value": "5 (5=80-100%)"}, {"measurement": "percentage damage caused to the plant, five point scale, SETFA", "setting": "[6]", "value": "5 (5=80-100%)"}, {"measurement": "percentage damage caused to the plant, five point scale, AVEFA", "setting": "[7]", "value": "5 (5=80-100%)"}, {"measurement": "percentage damage caused to the plant, five point scale, ECHCG", "setting": "[8]", "value": "5 (5=80-100%)"}]}, {"molecule": "CC#Cc1cc(C)c(C2C(=O)CC3(CC2=O)CN(C(=O)NC(C)(C)C)C3)c(C)c1", "note": "[Compound 1.006]", "values": [{"measurement": "percentage damage caused to the plant, five point scale, LOLPE", "setting": "[1]", "value": "5 (5=80-100%)"}, {"measurement": "percentage damage caused to the plant, five point scale, SETFA", "setting": "[2]", "value": "5 (5=80-100%)"}, {"measurement": "percentage damage caused to the plant, five point scale, AVEFA", "setting": "[3]", "value": "2 (2=20-39%)"}, {"measurement": "percentage damage caused to the plant, five point scale, ECHCG", "setting": "[4]", "value": "5 (5=80-100%)"}, {"measurement": "percentage damage caused to the plant, five point scale, LOLPE", "setting": "[5]", "value": "5 (5=80-100%)"}, {"measurement": "percentage damage caused to the plant, five point scale, SETFA", "setting": "[6]", "value": "5 (5=80-100%)"}, {"measurement": "percentage damage caused to the plant, five point scale, AVEFA", "setting": "[7]", "value": "5 (5=80-100%)"}, {"measurement": "percentage damage caused to the plant, five point scale, ECHCG", "setting": "[8]", "value": "5 (5=80-100%)"}]}, {"molecule": "CC#Cc1cc(C)c(C2C(=O)CC3(CC2=O)CN(C(=O)NC(=O)C(C)(C)C)C3)c(C)c1", "note": "[Compound 1.007]", "values": [{"measurement": "percentage damage caused to the plant, five point scale, LOLPE", "setting": "[1]", "value": "5 (5=80-100%)"}, {"measurement": "percentage damage caused to the plant, five point scale, SETFA", "setting": "[2]", "value": "5 (5=80-100%)"}, {"measurement": "percentage damage caused to the plant, five point scale, AVEFA", "setting": "[3]", "value": "3 (3=40-59%)"}, {"measurement": "percentage damage caused to the plant, five point scale, ECHCG", "setting": "[4]", "value": "5 (5=80-100%)"}, {"measurement": "percentage damage caused to the plant, five point scale, LOLPE", "setting": "[5]", "value": "5 (5=80-100%)"}, {"measurement": "percentage damage caused to the plant, five point scale, SETFA", "setting": "[6]", "value": "4 (4=60-79%)"}, {"measurement": "percentage damage caused to the plant, five point scale, AVEFA", "setting": "[7]", "value": "4 (4=60-79%)"}, {"measurement": "percentage damage caused to the plant, five point scale, ECHCG", "setting": "[8]", "value": "5 (5=80-100%)"}]}]}
